Test results reported in US6506407B2, “Colon-specific drug release system” (Yamanouchi Pharmaceutical Co., Ltd., priority 1994, dated 2003).

Assays:
[1] = tested on: contents of the cecum (enterobacteria); test: pH change of dispersion of rat cecal contents in PBS (C-PBS) with lactulose, shaken at 37° C. under anaerobic condition (Test Example 2); set-up: species or system SD male rat
Method: A 1/15 M phosphate buffer solution (NaH2PO4-Na2HPO4; pH 7.3; hereinafter referred to as PBS) was made isotonic by addition of sodium chloride and adjusted to pH 6.8 by CO2 bubbling. The contents of the cecum of an SD male rat was dispersed therein to prepare a 10 w/v % dispersion of the cecal contents in PBS (hereinafter referred to as C-PBS). To 10 ml of C-PBS was added 100 mg of lactulose, and the mixture was shaken (50 strokes/min) at 37° C. under an anaerobic condition, and the pH change was measured. As a control, the same test was conducted on no lactulose-administered C-PBS. The same test was carried out on a mixture of 30 w/v % C-PBS and lactulose. As shown in the table, the pH of the cecal contents rapidly decreases by the addition of lactulose.

[2] = pH in the cecum with time after oral lactulose aqueous solution (Test Example 3); format: in vivo, SD male rats; details: for pH in the cecum: oral 100 mg/rat
Method: SD male rats deprived of food overnight were orally given a lactulose aqueous solution (100 mg/rat), and the pH in the cecum was measured with time.

enterobacteria = test: generation of organic acid by the action of enterobacteria
[3] = tested on: contents of the cecum of a rat (enterobacteria); test: pH of 10 w/v % cecal contents dispersion (CPBS) with saccharide (Test Example 7); details: 200 mg saccharide in 20 ml 10 w/v % CPBS, 37° C.
Method: An isotonic phosphate buffer solution (pH: 7.3; PBS) was adjusted to pH 6.8 by CO2 bubbling. The contents of the cecum of a rat deprived of food for 24 hours was dispersed, therein to prepare a 10 w/v % dispersion of the cecal contents in PBS (CPBS). To 20 ml of CPBS was added 200 mg of a saccharide, and the mixture was shaken in a water bath at 37° C., and the pH of the CPBS was measured with time.

[4] = water solubility of saccharides and sugar alcohols
[5] = phosphorus concentration in plasma after salmon calcitonin; format: in vivo; details: beagle dogs in fasted condition, s.c., 50 IU/animal, versus untreated control
Method: The following solution was subcutaneously administered to beagle dogs in fasted condition. Blood was taken with time to determine the phosphorus concentration in plasma using Inorganic Phosphorus E-HA Test Wako (Wako Pure Chemical Industries, Ltd.).
1% Gelatin solution containing 50 IU/0.2 ml of salmon calcitonin (pH 3; 0.2 ml; 50 IU/animal)
A single tablet of the preparation obtained in Examples 21, 22 or 24 or two tablets of the preparation obtained in Example 23 was administered orally to beagle dogs together with 30 ml of water, and blood was taken with time to determine the phosphorus concentration in plasma.
A single tablet of the preparation obtained in Examples 25, 26 or 28 or two tablets of the preparation obtained in Example 27 was administered orally to beagle dogs together with 30 ml of water, and blood was taken with time to determine the phosphorus concentration in plasma.

Molecule: OC[C@H]1O[C@@H](O[C@@H]2[C@@H](CO)OC(O)(CO)[C@H]2O)[C@H](O)[C@@H](O)[C@H]1O (mixture of isomers) [lactulose]
- pH of C-PBS ([1]; 10 w/v % C-PBS 10 ml, lactulose 100 mg, 0 hr): 6.42
- pH of C-PBS ([1]; 10 w/v % C-PBS 10 ml, lactulose 100 mg, 2 hr): 5.93
- pH of C-PBS ([1]; 10 w/v % C-PBS 10 ml, lactulose 100 mg, 4 hr): 5.64
- pH of C-PBS ([1]; 10 w/v % C-PBS 10 ml, lactulose 100 mg, 6 hr): 5.41
- pH of C-PBS ([1]; 10 w/v % C-PBS 10 ml, lactulose 100 mg, 8 hr): 5.27
- pH of C-PBS ([1]; 10 w/v % C-PBS 10 ml, lactulose 100 mg, 24 hr): 4.76
- pH of C-PBS ([1]; 30 w/v % C-PBS and lactulose, 0 hr): 6.42
- pH of C-PBS ([1]; 30 w/v % C-PBS and lactulose, 2 hr): 5.39
- pH of C-PBS ([1]; 30 w/v % C-PBS and lactulose, 4 hr): 5.25
- pH of C-PBS ([1]; 30 w/v % C-PBS and lactulose, 6 hr): 5.15
- pH of C-PBS ([1]; 30 w/v % C-PBS and lactulose, 8 hr): 5.08
- duration of pH reduction in the cecum ([2]; 100 mg/animal): 8 hours
- pH in the cecum reduced to ([2]; 100 mg/animal, in 3 to 4 hours from the administration): about 5.5
- pH in the cecum ([2]; 1 hr): 8.2
- pH in the cecum ([2]; 2 hr): 6.8
- pH in the cecum ([2]; 3 hr): 6.2
- pH in the cecum ([2]; 4 hr): 5.5
- pH in the cecum ([2]; 5 hr): 5.6
- pH in the cecum ([2]; 6 hr): 5.8
- pH in the cecum ([2]; 7 hr): 5.3
- pH in the cecum ([2]; rats deprived of food overnight, 0 hr): 7.6
- rapid generation of an organic acid by enterobacteria (enterobacteria): degraded rapidly to generate an organic acid

Molecule: O=C(CO)[C@@H](O)[C@H](O)[C@H](O)CO [fructose]
- degradation by enterobacteria with organic acid generation (pH of CPBS with time) [3]: degraded by enterobacteria to generate an organic acid similarly to lactulose
- water solubility [4]: high
- rapid generation of an organic acid by enterobacteria (enterobacteria): generate an organic acid rapidly

Molecule: O=C[C@H](O)[C@@H](O)[C@@H](O)[C@H](O)CO [galactose]
- degradation by enterobacteria with organic acid generation (pH of CPBS with time) [3]: degraded by enterobacteria to generate an organic acid similarly to lactulose
- water solubility [4]: high
- rapid generation of an organic acid by enterobacteria (enterobacteria): generate an organic acid rapidly

Molecule: OC[C@H]1O[C@@H](O[C@H]2[C@H](O)[C@@H](O)C(O)O[C@@H]2CO)[C@H](O)[C@@H](O)[C@H]1O (stereo partly drawn) [lactose]
- rapid generation of an organic acid by enterobacteria (enterobacteria): no rapid generation of an organic acid

Molecule: Cc1occc(=O)c1O [maltol]
- water solubility [4]: low
- rapid generation of an organic acid by enterobacteria (enterobacteria): rapid generation of an organic acid was not observed

Molecule: OC[C@H]1O[C@H](O[C@H]2[C@H](O)[C@@H](O)[C@H](O)O[C@@H]2CO)[C@H](O)[C@@H](O)[C@@H]1O [maltose]
- degradation by enterobacteria with organic acid generation (pH of CPBS with time) [3]: degraded by enterobacteria to generate an organic acid similarly to lactulose
- rapid generation of an organic acid by enterobacteria (enterobacteria): generate an organic acid rapidly

Molecule: OC[C@@H](O)[C@@H](O)[C@H](O)[C@H](O)CO [mannitol]
- water solubility [4]: medium
- rapid generation of an organic acid by enterobacteria (enterobacteria): rapid generation of an organic acid was not observed

Molecule: O=C[C@H](O)[C@H](O)[C@H](O)CO [ribose]
- water solubility [4]: low
- rapid generation of an organic acid by enterobacteria (enterobacteria): no rapid generation of an organic acid

Molecule: OC[C@@H](O)[C@@H](O)[C@H](O)[C@@H](O)CO [sorbitol]
- water solubility [4]: high
- rapid generation of an organic acid by enterobacteria (enterobacteria): rapid generation of an organic acid was not observed

Molecule: OC[C@H]1O[C@@](CO)(O[C@H]2O[C@H](CO)[C@@H](O)[C@H](O)[C@H]2O)[C@@H](O)[C@@H]1O [sucrose]
- degradation by enterobacteria with organic acid generation (pH of CPBS with time) [3]: degraded by enterobacteria to generate an organic acid similarly to lactulose
- water solubility [4]: high
- rapid generation of an organic acid by enterobacteria (enterobacteria): generate an organic acid rapidly

Molecule: OC[C@@H](O)[C@H](O)[C@@H](O)CO [xylitol]
- water solubility [4]: high
- rapid generation of an organic acid by enterobacteria (enterobacteria): rapid generation of an organic acid was not observed

Molecule: O=C[C@H](O)[C@@H](O)[C@H](O)CO [xylose]
- water solubility [4]: high
- rapid generation of an organic acid by enterobacteria (enterobacteria): generate an organic acid rapidly

Molecule: fructooligosaccharide
- degradation by enterobacteria with organic acid generation (pH of CPBS with time) [3]: degraded by enterobacteria to generate an organic acid similarly to lactulose

Molecule: salmon calcitonin
- phosphorus level in plasma after subcutaneous administration [5]: suppressed immediately after the administration
